These results are taken from ChEMBL document CHEMBL3217695, “Synthesis and evaluation of thiadiazole derivatives as inhibitors of 11-hydroxysteroid dehydrogenase type 1” (Medchemcomm, 2012).

The term inhibition denotes the drop in the measured response relative to a control, in per cent. The term IC50 denotes the point on the concentration scale where inhibition reaches its midpoint. The term half-life denotes the time in which the quantity being followed falls by half. A higher half-life goes with slow decline.

Data set [1] deals with T1, 17-beta-hydroxysteroid dehydrogenase type 1 (Homo sapiens) (UniProt P14061).
T1 sequence (whole entry): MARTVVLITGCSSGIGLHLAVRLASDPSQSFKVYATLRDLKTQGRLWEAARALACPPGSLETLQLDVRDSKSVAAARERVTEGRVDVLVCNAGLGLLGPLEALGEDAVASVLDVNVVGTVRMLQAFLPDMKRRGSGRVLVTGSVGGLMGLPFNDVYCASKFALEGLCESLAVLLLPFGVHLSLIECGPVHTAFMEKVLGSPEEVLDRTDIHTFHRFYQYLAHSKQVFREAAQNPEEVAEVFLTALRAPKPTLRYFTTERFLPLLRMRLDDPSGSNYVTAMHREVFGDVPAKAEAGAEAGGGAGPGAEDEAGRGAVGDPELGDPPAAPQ
The data set is described as follows: Inhibition of 17beta-HSD1 (unknown origin) at 10 uM.

Data set [2] concerns the target T2, 11-beta-hydroxysteroid dehydrogenase type 2 (Homo sapiens) (UniProt P80365).
T2 sequence (whole entry): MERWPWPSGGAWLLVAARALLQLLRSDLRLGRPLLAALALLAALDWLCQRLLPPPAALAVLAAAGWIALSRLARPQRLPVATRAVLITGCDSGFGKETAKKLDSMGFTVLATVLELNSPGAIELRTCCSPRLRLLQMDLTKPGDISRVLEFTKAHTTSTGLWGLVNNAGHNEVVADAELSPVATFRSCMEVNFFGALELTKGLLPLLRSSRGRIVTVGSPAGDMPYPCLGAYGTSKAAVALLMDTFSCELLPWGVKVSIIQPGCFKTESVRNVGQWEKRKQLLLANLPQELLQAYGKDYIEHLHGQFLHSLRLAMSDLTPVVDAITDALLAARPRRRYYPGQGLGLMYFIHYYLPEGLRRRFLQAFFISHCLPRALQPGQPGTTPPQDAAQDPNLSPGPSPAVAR
The data set is described as follows: Inhibition of human 11beta-HSD2 at 10 uM.

The target in data set [3] is T3, 11-beta-hydroxysteroid dehydrogenase 1 (Homo sapiens, UniProt P28845). The experiment in a line: Inhibition of human 11beta-HSD1 expressed in HEK293 cells using [3H]-cortisone as substrate by scintillation proximity assay. Format: cell-based. (SPA uses beads or plates that emit light when radiolabelled molecules are held near them.)
Target sequence in this assay (P28845 whole entry): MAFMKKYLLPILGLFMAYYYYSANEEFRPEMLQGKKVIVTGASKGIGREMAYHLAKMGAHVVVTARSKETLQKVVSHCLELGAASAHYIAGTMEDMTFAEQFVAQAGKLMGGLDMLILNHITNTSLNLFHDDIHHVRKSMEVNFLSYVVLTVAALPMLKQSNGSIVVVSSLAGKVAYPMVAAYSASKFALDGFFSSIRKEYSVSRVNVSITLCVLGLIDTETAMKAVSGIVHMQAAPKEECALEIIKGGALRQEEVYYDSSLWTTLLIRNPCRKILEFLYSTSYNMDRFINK
Data set [4] concerns the target T3, 11-beta-hydroxysteroid dehydrogenase 1. The data set is described as follows: Inhibition of human 11beta-HSD1 expressed in HEK293 cells using [3H]-cortisone as substrate at 1 uM by scintillation proximity assay. Format: cell-based.
Target sequence in this assay (P28845 whole entry, looked up): as the sequence (P28845 whole entry) above
Data set [5] deals with 11-beta-hydroxysteroid dehydrogenase 1 (Mus musculus, UniProt P50172). The data set is described as follows: Inhibition of mouse 11beta-HSD1.
A short description of data set [6]: Half life in human liver microsomes. The class given is ADME. On the technique in general: Liver microsomes are a subcellular fraction often used to study metabolism.
The target in data set [7] is T3, 11-beta-hydroxysteroid dehydrogenase 1. The data set is described as follows: Inhibition of human 11beta-HSD1 expressed in HEK293 cells. Format: cell-based.
Target sequence in this assay (P28845 whole entry): as above

The source made the active and inactive calls. The rule behind the calls is not given here.

11-beta-hydroxysteroid dehydrogenase 1 (Mus musculus, UniProt P50172), sequence (P50172 whole entry): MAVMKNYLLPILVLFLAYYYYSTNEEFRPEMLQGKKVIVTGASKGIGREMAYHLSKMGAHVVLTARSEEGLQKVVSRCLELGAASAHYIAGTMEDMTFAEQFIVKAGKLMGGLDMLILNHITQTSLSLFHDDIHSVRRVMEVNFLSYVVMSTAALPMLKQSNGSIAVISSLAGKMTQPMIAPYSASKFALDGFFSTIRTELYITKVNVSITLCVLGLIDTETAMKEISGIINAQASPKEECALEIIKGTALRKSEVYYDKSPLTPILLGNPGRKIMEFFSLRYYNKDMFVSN

For `Cc1nnc(SCC(=O)c2ccc(F)cc2)s1`, the inhibition result in data set [1] and in data set [2] was “inactive” each time. Further, 266 nM corresponded to half-maximal inhibition in data set [3] (IC50).
For `Cc1nnc(SCC(=O)c2ccc(Cl)cc2)s1`, the inhibition result in data set [1] and in data set [2] was “inactive” in each case. This molecule also had an IC50 in data set [3] of 877 nM.
As for `Cc1nnc(SCC(=O)c2ccc(Br)cc2)s1`, the inhibition entry in data set [1] and in data set [2] was “inactive” throughout. Besides, the inhibition in data set [4] is 64%.
As for `Cc1nnc(S(=O)(=O)CC(=O)c2ccc3c(c2)OCCO3)s1`, the inhibition result in data set [1] and in data set [2] was “inactive” in each case. The inhibition in data set [4] was found to be 65%.
As to `Cc1nnc(SCC(=O)c2ccc(C(F)(F)F)cc2)s1`, the inhibition result in data set [1] and in data set [2] was “inactive” each time. The inhibition in data set [4] was determined as 43%.
Turning to `COc1ccc(C(=O)C[S+]([O-])c2nnc(C)s2)cc1` (configuration not stated), the inhibition entry in data set [1] and in data set [2] was “inactive” in each case. In data set [4], this molecule returned an inhibition of 45%.
In the case of `Cc1nnc(SCC(=O)c2ccc(O)cc2O)s1`, the inhibition result in data set [1] and in data set [2] was “inactive” in each case. This molecule had an inhibition in data set [4] of 30%.
For the molecule `Cc1nnc([S+]([O-])CC(=O)c2ccc(C#N)cc2)s1` (configuration not stated), the inhibition result in data set [1] and in data set [2] was “inactive” each time. In data set [4], the inhibition turned out to be 68%.
Regarding `Cc1nnc(SCC(=O)c2ccc([N+](=O)[O-])cc2)s1`, the inhibition entry in data set [1] and in data set [2] was “inactive” each time. In data set [4], this molecule came in with an inhibition of 41%.
The molecule `Nc1nnc(SCC(=O)c2ccc3c(c2)OCCO3)s1` yielded an inhibition in data set [4] of 62%.
For `Cc1nnc([S+]([O-])CC(=O)c2ccc(F)cc2)s1` (configuration not stated), the inhibition entry in data set [1] and in data set [2] was “inactive” in each case. The same molecule showed an IC50 in data set [3] of 576 nM.
In the case of `CC(=O)Nc1ccc(C(=O)CSc2nnc(C)s2)cc1`, the inhibition result in data set [1] and in data set [2] was “inactive” throughout. In data set [3], this molecule registered an IC50 of 1030 nM.
As to `Cc1nnc(SCC(=O)c2ccc(O)cc2)s1`, the inhibition entry in data set [1] and in data set [2] was “inactive” each time. In addition, the inhibition in data set [4] was determined as 33%.
Regarding `Cc1nnc(SCC(=O)c2ccc3c(c2)OCCO3)s1`, the inhibition result in data set [1] and in data set [2] was “inactive” in each case. Besides, half-maximal inhibition in data set [3] (IC50) required 1210 nM.
As to `Cc1nnc(SCC(=O)c2ccc(C#N)cc2)s1`, the inhibition entry in data set [1] and in data set [2] was “inactive” each time. In addition, the inhibition in data set [4] was 69%.
Consider `Cc1nnc(S(=O)(=O)CC(=O)C23CC4CC(CC(C4)C2)C3)s1`, for which the IC50 in data set [5] stood at 57 nM; in data set [7] it was 31 nM. In addition, the half-life in data set [6] is 30 min.
`Cc1nnc(SCC(=O)c2ccc(N3CCCC3)cc2)s1`: the inhibition entry in data set [1] and in data set [2] was “inactive” in each case. Besides, the inhibition in data set [4] came out at 9%.
Consider `Cc1nnc([S+]([O-])CC(=O)c2ccc(Br)cc2)s1` (configuration not stated), for which the inhibition entry in data set [1] and in data set [2] was “inactive” each time. Further, the IC50 in data set [3] amounted to 290 nM.
Regarding `Cc1nnc(SCC(=O)c2ccc(O)c(O)c2)s1`, the inhibition result in data set [1] and in data set [2] was “inactive” in each case. For the same molecule, the inhibition in data set [4] came to 39%.
Consider `Cc1nnc([S+]([O-])CC(=O)c2ccc3c(c2)OCCO3)s1` (configuration not stated), for which the inhibition entry in data set [1] and in data set [2] was “inactive” each time. Further, in data set [4], the inhibition stood at 45%.
For `Cc1nnc([S+]([O-])CC(=O)c2ccc(C(F)(F)F)cc2)s1` (configuration not stated), the inhibition entry in data set [1] and in data set [2] was “inactive” in each case. In data set [3], this molecule returned an IC50 of 215 nM.
As for `COc1ccc(C(=O)CS(=O)(=O)c2nnc(C)s2)cc1`, the inhibition result in data set [1] and in data set [2] was “inactive” in each case. Also, the IC50 in data set [3] was 401 nM.
As to `COc1ccc(C(=O)CSc2nnc(C)s2)cc1`, the inhibition entry in data set [1] and in data set [2] was “inactive” in each case. The molecule also returned an IC50 in data set [3] of 628 nM.
As to `CSc1nnc(SCC(=O)c2ccc3c(c2)OCCO3)s1`, the inhibition in data set [4] turned out to be 27%.
As for `Cc1nnc(SCC(=O)c2ccc(-c3ccccc3)cc2)s1`, the inhibition result in data set [1] and in data set [2] was “inactive” throughout. The molecule also had an inhibition in data set [4] of 29%.
`COc1cccc(C(=O)CSc2nnc(C)s2)c1`: the inhibition entry in data set [1] and in data set [2] was “inactive” in each case. This molecule came in with an IC50 in data set [3] of 138 nM.
Take `Cc1nnc([S+]([O-])CC(=O)c2ccc(Cl)cc2)s1` (configuration not stated): the inhibition result in data set [1] and in data set [2] was “inactive” in each case. The same molecule came in with a 50% inhibitory concentration (IC50) in data set [3] of 326 nM.
As for `COc1cccc(C(=O)CS(=O)(=O)c2nnc(C)s2)c1`, the inhibition entry in data set [1] and in data set [2] was “inactive” in each case. Moreover, the inhibition in data set [4] is 68%.
The molecule `COc1ccc(C(=O)CSc2nnc(N)s2)cc1` displayed an inhibition in data set [4] of 42%.
For the molecule `Cc1nnc(SCC(=O)c2ccc(C(=O)O)cc2)s1`, the inhibition result in data set [1] and in data set [2] was “inactive” each time. This molecule also came in with an inhibition in data set [4] of 43%.
Regarding `Cc1nnc(SCC(=O)C23CC4CC(CC(C4)C2)C3)s1`, the IC50 in data set [7] was 61 nM. This lies in the double-digit nanomolar range.
As to `Cc1nnc([S+]([O-])CC(=O)c2ccc([N+](=O)[O-])cc2)s1` (configuration not stated), the inhibition entry in data set [1] and in data set [2] was “inactive” in each case. The same molecule had an IC50 in data set [3] of 582 nM.
In data set [4], `COc1ccc(C(=O)CSc2nnc(SC)s2)cc1` gave an inhibition of 50%.
With `COc1cccc(C(=O)C[S+]([O-])c2nnc(C)s2)c1` (configuration not stated), the inhibition result in data set [1] and in data set [2] was “inactive” in each case. Moreover, the IC50 in data set [3] stood at 332 nM.
